PubChem BioAssay AID1963830 (Molecular Pharmacology Branch, DTP, NCI, 2024)
pIC50: −log10 of the molar value.

Tested on: 922993-354-T-J3-PDC complex spheroid viability
Experiment: Anticancer human tumor 922993-354-T-J3-PDC patient-derived endometrial carcinoma cell line growth inhibition [POLQ]
Conditions: for pIC50: curve of first compound; for viability, T/C: stronger effect = lower value
Description: Multicellular complex tumor spheroid response to Polymerase (POL) inhibitors (novobiocin, ART-558, RP6685) in combination with a variety of drugs and investigational agents in selected tumor cell lines
The POL inhibitors (novobiocin, ART-558, and RP6685) were evaluated both individually and in combination with standard of care and investigational anticancer small molecules within a complex spheroid model of solid tumors. . Complex spheroids include a stromal component modeled by human endothelial cells (HUVEC) and fibroblasts modeled by human mesenchymal stem cells (MSCs). The concentration ranges selected for each drug and investigational agent were based upon clinically achievable concentrations if the clinical Cmax of the agent was known.
Compounds. The drugs and investigational agents: novobiocin (NSC847541), ART-558 (NSC835418), RP-6685 (NSC848927), peposertib (NSC802822), ceralasertib (NSC780249), elimusertib (NSC800525), camonsertib (NSC841442), AZD-1390 (NSC803789), olaparib (NSC753686), talazoparib (NSC767125), rucaparib (NSC756644), sotorasib (NSC818433), MRTX-1133 (NSC836407), SN-38 (NSC673596), topotecan (NSC609699), epotoside (NSC141540), doxorubicin (NSC123127), gemcitabine (NSC613327), 5-fluorouracil (NSC19893), paclitaxel (NSC125973), vemurafenib (NSC761431), MSA-2 (NSC828583), SN-011 (NSC837082), adavosertib (NSC754352), prexasertib (NSC758257), carboplatin (NSC241240) and oxaliplatin (NSC266046), were obtained from the National Cancer Institute (NCI) Developmental Therapeutics Program Chemical Repository (21). The FDA-approved anticancer drug set is available from the Developmental Therapeutics Program at https://dtp.cancer.gov/organization/dscb/obtaining/. […] The stock solutions were prepared in dimethyl sulfoxide (DMSO, Sigma-Aldrich, St. Louis, MO, cat. D2650), except for the platinum compounds which were prepared in saline (Quality Biological, Gaithersburg, MD, cat. 114-055-101), at 800-fold the tested concentration and stored at -70 degrees C prior to their use. All drugs and investigational agents were tested over a range starting from a high concentration at or near the clinical Cmax and decreasing in half-log increments. If the clinical Cmax for an agent had not been determined, the highest concentration tested was 10 microM, except for SN-38, which was tested at a high concentration of 1 microM.
Cell Culture. All cells were maintained in an incubator at 37 degrees C and 5% CO2 with 95% humidity. The PDC lines were cultured according to standard operating procedures established by the NCI PDMR (https://pdmr.cancer.gov). Table 3 of the manuscript, lists the cell lines along with the number of the three cell types plated to form the mct-spheroids and media for tumor cell growth. After thawing, all PDC lines, except 997537-175-T-J1-PDC and 415267-285-R-J2-PDC, were cultured in Matrigel-coated flasks prepared with a working solution of 1X Ham's F-12 nutrient mix, without supplementation (Thermo Fisher Scientific, cat. 11765054), 100 U/mL penicillin-streptomycin (Thermo Fisher Scientific, cat. 15140122), and 2.5% Matrigel (Corning Inc., Corning, NY, cat. 354248) for the first three passages. The two PDC lines 997537-175-T-J1-PDC and 415267-285-R-J2-PDC were cultured on uncoated flasks. The 857933-349-R-J2-PDC line was cultured in 6C/Colon 1B media containing advanced DMEM/F-12 (Thermo Fisher Scientific, cat. 12634028), 10 mM HEPES (Thermo Fisher Scientific, cat. 15630080), 1X GlutaMAX supplement (Thermo Fisher Scientific, cat. 35050061), 0.1 mg/mL primocin (InvivoGen, San Diego, CA, cat. ant-pm-2), 10% defined fetal bovine serum, heat inactivated (HyClone Laboratories Inc., Logan, UT, cat. SH30070.03HI), 50% L-WRN conditioned media (ATCC, cat. CRL-3276), 1.25 mM N-Acetyl-L-cysteine (Sigma-Aldrich, cat. A9165), 10 mM nicotinamide (Sigma-Aldrich, cat. N0636), 1X B-27 supplement (Thermo Fisher Scientific, cat. 17504044), 1X N-2 supplement (Thermo Fisher Scientific, cat. […]

[1] = second compound 0.0316 µM, first compound 0.0316 µM
[2] = second compound 0.0316 µM, first compound 0.1 µM
[3] = second compound 0.0316 µM, first compound 0.316 µM
[4] = second compound 0.0316 µM, first compound 1 µM
[5] = second compound 0.0316 µM, first compound 3.16 µM
[6] = second compound 0.0316 µM, first compound 10 µM
[7] = second compound 0.1 µM, first compound 0.0316 µM
[8] = second compound 0.1 µM, first compound 0.1 µM
[9] = second compound 0.1 µM, first compound 0.316 µM
[10] = second compound 0.1 µM, first compound 1 µM
[11] = second compound 0.1 µM, first compound 3.16 µM
[12] = second compound 0.1 µM, first compound 10 µM
[13] = second compound 0.316 µM, first compound 0.0316 µM
[14] = second compound 0.316 µM, first compound 0.1 µM
[15] = second compound 0.316 µM, first compound 0.316 µM
[16] = second compound 0.316 µM, first compound 1 µM
[17] = second compound 0.316 µM, first compound 3.16 µM
[18] = second compound 0.316 µM, first compound 10 µM
[19] = second compound 1 µM, first compound 0.0316 µM
[20] = second compound 1 µM, first compound 0.1 µM
[21] = second compound 1 µM, first compound 0.316 µM
[22] = second compound 1 µM, first compound 1 µM
[23] = second compound 1 µM, first compound 3.16 µM
[24] = second compound 1 µM, first compound 10 µM
[25] = second compound 3.16 µM, first compound 0.0316 µM
[26] = second compound 3.16 µM, first compound 0.1 µM
[27] = second compound 3.16 µM, first compound 0.316 µM
[28] = second compound 3.16 µM, first compound 1 µM
[29] = second compound 3.16 µM, first compound 3.16 µM
[30] = second compound 3.16 µM, first compound 10 µM
[31] = second compound 10 µM, first compound 0.0316 µM
[32] = second compound 10 µM, first compound 0.1 µM
[33] = second compound 10 µM, first compound 0.316 µM
[34] = second compound 10 µM, first compound 1 µM
[35] = second compound 10 µM, first compound 3.16 µM
[36] = second compound 10 µM, first compound 10 µM
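Also: spheroids exposed to the agents for one week.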
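For viability, T/C in this document: 100% = DMSO vehicle control wells.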

Compound `C#Cc1c(F)ccc2cc(O)cc(-c3ncc4c(N5CC6CCC(C5)N6)nc(OCC56CCCN5CC(F)C6)nc4c3F)c12` (centres undefined) + Nc1ccc(C#CCN(C(=O)Cc2ncc(C(F)(F)F)cc2C(F)(F)F)c2ccc(F)cc2)nn1 has a pIC50 (second compound 0.0316 µM) of under 5.00, a pIC50 (second compound 0.1 µM) of under 5.00 and a pIC50 (second compound 0.316 µM) of under 5.00. The pIC50 (second compound 1 µM) was under 5.00, the pIC50 (second compound 3.16 µM) was under 5.00 and the pIC50 (second compound 10 µM) was under 5.00. It also gave a viability, T/C [1] of 109%, a viability, T/C [2] of 106% and a viability, T/C [3] of 104%. For the same compound, the viability, T/C [4] was 102%, the viability, T/C [5] was 104% and the viability, T/C [6] was 102%. For the same compound, the viability, T/C [7] was 105%, the viability, T/C [8] was 101% and the viability, T/C [9] was 104%. The viability, T/C [10] was 101%, the viability, T/C [11] was 101% and the viability, T/C [12] was 102%. For the same compound, the viability, T/C [13] was 109%, the viability, T/C [14] was 108% and the viability, T/C [15] was 106%. For the same compound, the viability, T/C [16] was 103%, the viability, T/C [17] was 104% and the viability, T/C [18] was 102%. For the same compound, the viability, T/C [19] was 105%, the viability, T/C [20] was 107% and the viability, T/C [21] was 105%. The viability, T/C [22] was 106%, the viability, T/C [23] was 107% and the viability, T/C [24] was 98.2%. For the same compound, the viability, T/C [25] was 103%, the viability, T/C [26] was 106% and the viability, T/C [27] was 104%. For the same compound, the viability, T/C [28] was 104%, the viability, T/C [29] was 102% and the viability, T/C [30] was 100%. The viability, T/C [31] was 94.3%, the viability, T/C [32] was 99.9% and the viability, T/C [33] was 100%. For the same compound, the viability, T/C [34] was 99.1%, the viability, T/C [35] was 96.9% and the viability, T/C [36] was 92.5%.
With `COc1cc2cc(C(=O)CCC(=O)O)sc2cc1OC` + Nc1ccc(C#CCN(C(=O)Cc2ncc(C(F)(F)F)cc2C(F)(F)F)c2ccc(F)cc2)nn1 the pIC50 (second compound 0.0316 µM) was under 5.00, the pIC50 (second compound 0.1 µM) was under 5.00 and the pIC50 (second compound 0.316 µM) was under 5.00. The pIC50 (second compound 1 µM) was under 5.00, the pIC50 (second compound 3.16 µM) was under 5.00 and the pIC50 (second compound 10 µM) was under 5.00. For the same compound, the viability, T/C [1] was 104%, the viability, T/C [2] was 105% and the viability, T/C [3] was 108%. The viability, T/C [4] was 102%, the viability, T/C [5] was 109% and the viability, T/C [6] was 84.6%. It also gave a viability, T/C [7] of 108%, a viability, T/C [8] of 105% and a viability, T/C [9] of 103%. The viability, T/C [10] was 95.6%, the viability, T/C [11] was 104% and the viability, T/C [12] was 78.9%. For the same compound, the viability, T/C [13] was 102%, the viability, T/C [14] was 103% and the viability, T/C [15] was 98.3%. It also gave a viability, T/C [16] of 97.7%, a viability, T/C [17] of 102% and a viability, T/C [18] of 82.1%. The viability, T/C [19] was 102%, the viability, T/C [20] was 99.6% and the viability, T/C [21] was 108%. It also gave a viability, T/C [22] of 102%, a viability, T/C [23] of 103% and a viability, T/C [24] of 81%. It also gave a viability, T/C [25] of 99%, a viability, T/C [26] of 102% and a viability, T/C [27] of 98.5%. For the same compound, the viability, T/C [28] was 104%, the viability, T/C [29] was 105% and the viability, T/C [30] was 84%. It also gave a viability, T/C [31] of 94.6%, a viability, T/C [32] of 95.2% and a viability, T/C [33] of 97.7%. The viability, T/C [34] was 95%, the viability, T/C [35] was 104% and the viability, T/C [36] was 78.8%.
